Reference: publication PMC6789782, “Safety Pharmacological Evaluation of the Coffee Component, Caffeoylquinic Acid, and Its Metabolites, Using Ex Vivo and In Vitro Profiling Assays” (Pharmaceuticals, 2019)
Where two headings read alike, the source gives them in different places.

Assays:
[1] = test system: Glutamate, NMDA; assay: In vitro profiling, binding assay; set-up: species or system rat; conditions: 30 µM
Experimental: (§1) Binding and functional assays of CGAs with the proteins known to be pharmacological targets related to the CVS, CNS, and GI functions were conducted. […] In the binding assay, we measured the radiation activity of the solution containing filtered proteins that bound to the tested compound or high-affinity ligand, while in the functional assays, we measured the reaction product. The ability of the test compound to interact with the tested targets was measured as the inhibition of ligand binding to the target or reaction product production (% inhibition).

[2] = test system: Calcium Channel L-Type, Phenylalkylamine; assay: In vitro profiling, binding assay; set-up: species or system rat; conditions: 30 µM
Experimental: as §1

[3] = test system: Calcium Channel L-Type, Benzothiazepine; assay: In vitro profiling, binding assay; set-up: species or system rat; conditions: 30 µM
Experimental: as §1

[4] = test system: Sodium Channel; assay: In vitro profiling, binding assay; set-up: species or system rat; conditions: 30 µM
Experimental: as §1

[5] = test system: GABAA; assay: In vitro profiling, binding assay; set-up: species or system rat; conditions: 30 µM
Experimental: as §1

[6] = test system: Calcium Channel L-Type, Dihydropyridine; assay: In vitro profiling, binding assay; set-up: species or system rat; conditions: 30 µM
Experimental: as §1

[7] = target: Adenosine A2A (Homo sapiens, UniProt P29274); assay: In vitro profiling, binding assay
Chain of Adenosine A2A (P29274 whole entry): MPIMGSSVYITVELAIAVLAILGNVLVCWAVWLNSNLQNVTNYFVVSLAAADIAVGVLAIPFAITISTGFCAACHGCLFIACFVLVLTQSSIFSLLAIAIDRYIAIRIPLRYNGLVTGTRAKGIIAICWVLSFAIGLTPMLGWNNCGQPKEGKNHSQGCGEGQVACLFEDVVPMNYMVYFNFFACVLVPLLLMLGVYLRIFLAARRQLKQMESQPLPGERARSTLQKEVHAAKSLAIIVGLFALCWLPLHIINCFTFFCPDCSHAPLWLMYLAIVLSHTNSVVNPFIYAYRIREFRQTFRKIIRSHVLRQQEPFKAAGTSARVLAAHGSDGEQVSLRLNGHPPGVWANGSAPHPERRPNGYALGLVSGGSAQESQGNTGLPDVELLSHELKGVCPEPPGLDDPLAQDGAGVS
Experimental: as §1

[8] = target: Adrenergic β2 (Homo sapiens, UniProt P07550); assay: In vitro profiling, binding assay
Chain of Adrenergic β2 (P07550 whole entry): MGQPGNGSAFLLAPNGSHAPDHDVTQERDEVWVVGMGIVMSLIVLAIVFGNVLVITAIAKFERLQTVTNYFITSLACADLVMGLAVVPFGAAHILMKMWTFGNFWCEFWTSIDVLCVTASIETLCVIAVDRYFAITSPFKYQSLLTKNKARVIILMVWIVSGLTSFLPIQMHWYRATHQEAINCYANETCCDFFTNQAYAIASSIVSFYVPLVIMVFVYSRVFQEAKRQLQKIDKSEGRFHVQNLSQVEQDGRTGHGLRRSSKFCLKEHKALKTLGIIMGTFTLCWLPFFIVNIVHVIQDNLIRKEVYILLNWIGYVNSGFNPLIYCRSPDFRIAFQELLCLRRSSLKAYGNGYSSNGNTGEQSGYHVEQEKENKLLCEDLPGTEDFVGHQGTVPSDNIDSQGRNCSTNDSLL
Experimental: as §1

[9] = target: Cannabinoid CB1 (Homo sapiens, UniProt P21554); assay: In vitro profiling, binding assay
Chain of Cannabinoid CB1 (P21554 whole entry): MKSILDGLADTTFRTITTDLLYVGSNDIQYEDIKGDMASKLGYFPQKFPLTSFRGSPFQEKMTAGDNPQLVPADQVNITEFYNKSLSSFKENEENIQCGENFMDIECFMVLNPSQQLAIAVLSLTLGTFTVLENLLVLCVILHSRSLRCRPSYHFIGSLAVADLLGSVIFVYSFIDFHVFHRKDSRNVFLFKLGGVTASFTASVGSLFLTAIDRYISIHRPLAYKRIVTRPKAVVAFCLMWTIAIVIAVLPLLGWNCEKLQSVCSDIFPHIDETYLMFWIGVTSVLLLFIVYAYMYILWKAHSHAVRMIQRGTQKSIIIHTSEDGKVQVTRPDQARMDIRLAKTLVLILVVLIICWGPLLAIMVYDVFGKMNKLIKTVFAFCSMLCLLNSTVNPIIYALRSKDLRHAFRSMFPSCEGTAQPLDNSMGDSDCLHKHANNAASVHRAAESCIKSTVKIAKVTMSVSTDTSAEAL
Experimental: as §1

[10] = target: T1, Muscarinic M2 (Homo sapiens, UniProt P08172); assay: In vitro profiling, binding assay
T1 sequence (P08172 1-466): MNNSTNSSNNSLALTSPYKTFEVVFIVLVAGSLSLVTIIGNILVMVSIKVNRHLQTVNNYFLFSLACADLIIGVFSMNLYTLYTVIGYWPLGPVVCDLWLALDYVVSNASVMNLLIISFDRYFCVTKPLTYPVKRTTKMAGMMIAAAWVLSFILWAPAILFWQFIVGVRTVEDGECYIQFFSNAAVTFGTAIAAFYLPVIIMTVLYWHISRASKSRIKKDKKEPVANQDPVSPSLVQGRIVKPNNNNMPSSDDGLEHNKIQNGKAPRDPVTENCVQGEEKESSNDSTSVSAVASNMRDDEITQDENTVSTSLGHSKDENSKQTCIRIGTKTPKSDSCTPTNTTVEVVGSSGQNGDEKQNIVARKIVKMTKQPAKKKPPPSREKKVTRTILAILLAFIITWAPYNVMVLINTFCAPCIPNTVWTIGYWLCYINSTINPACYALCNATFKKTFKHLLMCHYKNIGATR
Experimental: as §1

[11] = target: Opiate δ1 (Homo sapiens, UniProt P41143); assay: In vitro profiling, binding assay
Chain of Opiate δ1 (P41143 whole entry): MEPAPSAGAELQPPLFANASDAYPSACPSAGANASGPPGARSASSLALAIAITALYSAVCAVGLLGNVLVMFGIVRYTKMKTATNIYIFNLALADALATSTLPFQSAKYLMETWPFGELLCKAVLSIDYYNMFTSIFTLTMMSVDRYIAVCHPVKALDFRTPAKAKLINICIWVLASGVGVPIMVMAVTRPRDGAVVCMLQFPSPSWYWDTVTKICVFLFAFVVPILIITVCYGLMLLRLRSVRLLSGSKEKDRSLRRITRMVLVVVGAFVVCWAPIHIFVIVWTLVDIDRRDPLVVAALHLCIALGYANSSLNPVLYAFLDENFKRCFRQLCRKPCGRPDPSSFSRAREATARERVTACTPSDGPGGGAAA
Experimental: as §1

[12] = target: Histamine H1 (Homo sapiens, UniProt P35367); assay: In vitro profiling, binding assay
Chain of Histamine H1 (P35367 whole entry): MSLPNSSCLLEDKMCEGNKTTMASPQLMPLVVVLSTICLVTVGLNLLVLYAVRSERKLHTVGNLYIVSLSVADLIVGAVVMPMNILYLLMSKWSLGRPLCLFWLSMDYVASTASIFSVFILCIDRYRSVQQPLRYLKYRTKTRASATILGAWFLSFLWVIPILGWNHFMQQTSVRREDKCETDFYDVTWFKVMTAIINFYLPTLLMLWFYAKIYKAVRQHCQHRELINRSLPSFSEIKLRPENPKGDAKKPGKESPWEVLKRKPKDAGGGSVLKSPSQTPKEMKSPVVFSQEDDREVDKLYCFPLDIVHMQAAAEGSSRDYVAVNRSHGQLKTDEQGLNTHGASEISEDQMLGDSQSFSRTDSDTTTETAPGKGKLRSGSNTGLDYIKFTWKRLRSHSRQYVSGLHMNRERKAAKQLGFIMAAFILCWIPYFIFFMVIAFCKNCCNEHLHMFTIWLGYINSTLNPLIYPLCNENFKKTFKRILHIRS
Experimental: as §1

[13] = target: T2, Monoamine Oxidase MAO-A (Homo sapiens, UniProt P21397); assay: In vitro profiling, functional assay; type: biochemical
T2 sequence (P21397 1-527): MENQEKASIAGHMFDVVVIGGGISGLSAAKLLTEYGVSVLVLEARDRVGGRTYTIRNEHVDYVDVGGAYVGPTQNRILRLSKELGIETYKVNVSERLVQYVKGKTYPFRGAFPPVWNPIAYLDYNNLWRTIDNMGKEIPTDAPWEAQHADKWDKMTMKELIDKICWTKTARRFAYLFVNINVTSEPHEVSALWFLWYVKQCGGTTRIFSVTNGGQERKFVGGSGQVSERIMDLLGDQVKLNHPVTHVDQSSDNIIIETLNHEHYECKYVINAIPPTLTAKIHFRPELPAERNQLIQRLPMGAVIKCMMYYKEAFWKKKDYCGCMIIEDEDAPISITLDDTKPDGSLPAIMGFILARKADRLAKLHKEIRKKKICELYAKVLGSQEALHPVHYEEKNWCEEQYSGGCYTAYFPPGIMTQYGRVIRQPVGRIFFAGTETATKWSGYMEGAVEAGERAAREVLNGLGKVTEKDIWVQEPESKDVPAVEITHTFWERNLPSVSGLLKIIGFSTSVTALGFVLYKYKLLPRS
Experimental: as §1

[14] = target: Cyclooxygenase COX-1 (Homo sapiens, UniProt P23219); assay: In vitro profiling, functional assay; type: biochemical
Chain of Cyclooxygenase COX-1 (P23219 24-599): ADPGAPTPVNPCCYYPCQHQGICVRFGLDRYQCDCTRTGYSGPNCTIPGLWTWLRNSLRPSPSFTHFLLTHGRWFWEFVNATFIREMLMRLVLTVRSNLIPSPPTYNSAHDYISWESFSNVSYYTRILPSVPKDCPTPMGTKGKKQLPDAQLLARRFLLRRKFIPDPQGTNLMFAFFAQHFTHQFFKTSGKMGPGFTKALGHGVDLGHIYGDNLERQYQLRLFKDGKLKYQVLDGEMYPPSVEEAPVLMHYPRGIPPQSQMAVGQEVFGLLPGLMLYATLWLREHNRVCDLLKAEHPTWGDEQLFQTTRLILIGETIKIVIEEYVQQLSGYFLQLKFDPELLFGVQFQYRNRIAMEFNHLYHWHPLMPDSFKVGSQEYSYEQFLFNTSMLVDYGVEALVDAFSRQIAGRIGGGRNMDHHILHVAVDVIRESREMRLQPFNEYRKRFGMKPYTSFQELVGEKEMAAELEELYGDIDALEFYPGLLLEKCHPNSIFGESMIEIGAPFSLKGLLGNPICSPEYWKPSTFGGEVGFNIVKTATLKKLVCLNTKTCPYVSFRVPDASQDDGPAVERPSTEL
Experimental: as §1

[15] = target: T3, Cyclooxygenase COX-2 (Homo sapiens, UniProt P35354); assay: In vitro profiling, functional assay; type: biochemical
T3 sequence (P35354 18-604): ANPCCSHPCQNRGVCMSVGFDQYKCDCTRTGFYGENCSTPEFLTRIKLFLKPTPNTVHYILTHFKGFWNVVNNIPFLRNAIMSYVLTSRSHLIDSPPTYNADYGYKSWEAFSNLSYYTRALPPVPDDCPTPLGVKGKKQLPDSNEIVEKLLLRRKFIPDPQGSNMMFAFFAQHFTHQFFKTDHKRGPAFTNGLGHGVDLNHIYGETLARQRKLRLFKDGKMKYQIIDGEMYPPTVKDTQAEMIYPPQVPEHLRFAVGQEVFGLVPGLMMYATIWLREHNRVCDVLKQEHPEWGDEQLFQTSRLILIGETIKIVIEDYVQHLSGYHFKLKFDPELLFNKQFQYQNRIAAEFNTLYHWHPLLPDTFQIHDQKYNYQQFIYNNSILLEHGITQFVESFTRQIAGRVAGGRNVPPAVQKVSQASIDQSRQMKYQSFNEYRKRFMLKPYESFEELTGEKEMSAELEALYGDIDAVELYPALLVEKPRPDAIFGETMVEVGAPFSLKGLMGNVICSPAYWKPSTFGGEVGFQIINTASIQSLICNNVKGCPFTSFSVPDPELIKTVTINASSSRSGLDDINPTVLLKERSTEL
Experimental: as §1

[16] = target: T4, Peptidase, CTSG (Cathepsin G) (Homo sapiens, UniProt P08311); assay: In vitro profiling, functional assay; type: biochemical
T4 sequence (P08311 21-255): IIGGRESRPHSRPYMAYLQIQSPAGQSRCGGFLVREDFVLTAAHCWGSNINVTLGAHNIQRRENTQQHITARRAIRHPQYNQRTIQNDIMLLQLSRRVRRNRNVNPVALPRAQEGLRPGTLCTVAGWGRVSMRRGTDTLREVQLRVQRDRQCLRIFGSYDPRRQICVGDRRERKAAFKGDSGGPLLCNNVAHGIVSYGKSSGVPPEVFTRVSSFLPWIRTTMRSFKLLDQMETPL
Experimental: as §1

[17] = 30 µM, Adenosine A2A, read-out: % Inhibition
[18] = 30 µM, Adrenergic β2, read-out: % Inhibition
[19] = 30 µM, Cannabinoid CB1, read-out: % Inhibition
[20] = 30 µM, Muscarinic M2, read-out: % Inhibition
[21] = 30 µM, Opiate δ1, read-out: % Inhibition
[22] = 30 µM, Monoamine Oxidase MAO-A, read-out: % Inhibition
[23] = 30 µM, Cyclooxygenase COX-1, read-out: % Inhibition
[24] = 30 µM, Peptidase, CTSG (Cathepsin G), read-out: % Inhibition

| SMILES | % Inhibition [1] | % Inhibition [2] | % Inhibition [3] | % Inhibition [4] | % Inhibition [5] | % Inhibition [6] | inhibition at 30 µM [7, 17] | inhibition at 30 µM [8, 18] | inhibition at 30 µM [9, 19] | inhibition at 30 µM [10, 20] | inhibition at 30 µM [11, 21] | inhibition at 30 µM [12] | inhibition at 30 µM [13, 22] | inhibition at 30 µM [14, 23] | inhibition at 30 µM [15] | inhibition at 30 µM [16, 24] | inhibition at 30 µM [13] | inhibition at 30 µM [14] | further results |
| --- | --- | --- | --- | --- | --- | --- | --- | --- | --- | --- | --- | --- | --- | --- | --- | --- | --- | --- | --- |
| O=C(/C=C/c1ccc(O)c(O)c1)O[C@H]1C[C@@](O)(C(=O)O)C[C@H](O)[C@@H]1O [5-CQA, 5-O-caffeoylquinic acid] | 9% | 14% | −3% | 19% | 8% | 1% | -7% | 1% | -6% | -1% | 5% | -12% | -5% | 2% | 7% | 8% |  |  |  |
| COc1cc(/C=C/C(=O)O[C@H]2C[C@@](O)(C(=O)O)C[C@H](O)[C@@H]2O)ccc1O [5-FQA, 5-O-feruloylquinic acid] | 10% | 19% | 6% | 10% | 15% | 6% | 2% | 6% | -6% | 7% | 2% | -22% | 0% | 11% |  | 2% |  |  | inhibition at 30 µM ([15]; 30 µM, Cyclooxygenase COX-2, read-out: % Inhibition): 18% |
| COc1cc(/C=C/C(=O)O)ccc1O [FA, ferulic acid] | 16% | 26% | 6% | 5% | 1% | 1% |  |  |  |  |  |  |  |  | 14% |  | 5% | 5% | inhibition at 30 µM [7]: -14%; inhibition at 30 µM [8]: 2%; inhibition at 30 µM [9]: -15%; inhibition at 30 µM [10]: 17%; inhibition at 30 µM [11]: 16%; inhibition at 30 µM [16]: -2% |
| O=C(O)/C=C/c1ccc(O)c(O)c1 [CA, caffeic acid] | 5% | 21% | −3% | 1% | 18% | 7% |  |  |  |  |  |  |  |  | 9% |  | 0% | 6% | % Inhibition ([7]; 30 µM, Adenosine A2A): 4%; % Inhibition ([8]; 30 µM, Adrenergic β2): 2%; % Inhibition ([9]; 30 µM, Cannabinoid CB1): −9%; % Inhibition ([10]; 30 µM, Muscarinic M2): 23%; % Inhibition ([11]; 30 µM, Opiate δ1): 11%; % Inhibition ([12]; 30 µM): −11%; % Inhibition ([16]; 30 µM, Peptidase, CTSG (Cathepsin G)): 1% |
